Earlier results in US20140010903A1, “Curcuminoid composition with enhanced bioavailability and a process for its preparation” (Akay Flavours & Aromatics Pvt Ltd., priority 2012, published 2014).

O=C(/C=C/C=C/c1ccc2c(c1)OCO2)N1CCCCC1 [piperine]
Toxicity in animal studies: toxic
